Results: patent US10472381B2, “Sialic acid derivatives” (Reinhard Brossmer, priority 2014, dated 2019)

What follows are compounds tested against T1, CD22 (Homo sapiens, UniProt P20273) (assay: ELISA-based inhibition assay: inhibition of binding of soluble CD22 to immobilized IgM). Settings: Table I; relative to reference BPCNeu5Ac (rIP = 1).
T1 construct: The soluble CD22 protein was expressed in the CHO-Lec1 cell line; made in house; host or cells: CHO-Lec1
T1 sequence (P20273 20-687 limits assumed): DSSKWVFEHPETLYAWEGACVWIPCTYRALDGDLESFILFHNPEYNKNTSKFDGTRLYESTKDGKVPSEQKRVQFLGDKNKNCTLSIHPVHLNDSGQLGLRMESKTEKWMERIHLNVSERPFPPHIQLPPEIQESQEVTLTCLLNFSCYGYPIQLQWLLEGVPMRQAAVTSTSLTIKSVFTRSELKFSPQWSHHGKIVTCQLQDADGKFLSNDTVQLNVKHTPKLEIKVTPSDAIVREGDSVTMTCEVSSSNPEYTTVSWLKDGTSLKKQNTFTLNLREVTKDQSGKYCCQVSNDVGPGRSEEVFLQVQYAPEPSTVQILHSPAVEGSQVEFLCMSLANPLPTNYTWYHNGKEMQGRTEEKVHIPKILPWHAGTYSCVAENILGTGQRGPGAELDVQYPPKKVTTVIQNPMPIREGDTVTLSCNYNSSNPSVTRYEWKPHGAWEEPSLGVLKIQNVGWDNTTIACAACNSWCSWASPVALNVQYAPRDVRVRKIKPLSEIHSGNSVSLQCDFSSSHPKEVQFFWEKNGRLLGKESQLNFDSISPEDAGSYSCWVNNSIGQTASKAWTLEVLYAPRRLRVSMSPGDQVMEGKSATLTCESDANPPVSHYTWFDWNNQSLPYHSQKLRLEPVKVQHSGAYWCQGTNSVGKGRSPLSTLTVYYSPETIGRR
Protocol: The biological activity of the substances was determined in an ELISA-based inhibition assay as described in “Eur. J. Immunol. 2012, 42, 2792-2802”. The sialic acid derivatives of the formula (I) inhibit the binding of soluble CD22 to immobilized IgM in proportion to their affinity for CD22. The soluble CD22 protein was expressed in the CHO-Lec1 cell line and isolated as described by “Eur. J. Immunol. 2012, 42, 2792-2802”. […] The increase in affinity is reported as rIP (relative inhibitory affinity).

SMILES	rIP (relative inhibitory potency)
CC(=O)N[C@H]1[C@H]([C@H](O)[C@H](O)CNC(=O)c2ccc(-c3ccccc3)cc2)O[C@@](OCCCCCC(=O)[O-])(C(=O)[O-])C[C@@H]1NS(=O)(=O)[O-].[Na+].[Na+].[Na+] [Compound 15]	1920
CCC(=O)N[C@H]1C[C@](OCCCCCC(=O)[O-])(C(=O)[O-])O[C@@H]([C@H](O)[C@H](O)CNC(=O)c2ccc(-c3ccccc3)cc2)[C@@H]1NC(C)=O.[Na+].[Na+] [Compound 17]	502

Same assay, conditions: Table I; soluble CD22 binding to immobilized IgM

SMILES	IC50
CC(=O)N[C@@H]1[C@@H](NS(C)(=O)=O)[C@H](O)[C@](OCCCCCC(=O)O)(C(=O)O)O[C@H]1[C@H](O)[C@H](O)CNC(=O)c1ccc(-c2ccccc2)cc1 [Compound 11]	7.7 nM
CC(=O)N[C@H]1[C@H]([C@H](O)[C@H](O)CNC(=O)c2ccc(-c3ccccc3)cc2)O[C@@](OCCCCCC(=O)[O-])(C(=O)[O-])C[C@@H]1NS(=O)(=O)[O-].[Na+].[Na+].[Na+] [Compound 15]	3.2 nM
CCC(=O)N[C@H]1C[C@](OCCCCCC(=O)[O-])(C(=O)[O-])O[C@@H]([C@H](O)[C@H](O)CNC(=O)c2ccc(-c3ccccc3)cc2)[C@@H]1NC(C)=O.[Na+].[Na+] [Compound 17]	12 nM

Same assay, conditions: Table II; relative to reference compound 10 co-tested in the same assay (rIP = 1)

SMILES	rIP
CC(=O)N[C@@H]1[C@@H](NC(=O)C2CC2)[C@H](O)[C@](OCCCCCC(=O)[O-])(C(=O)[O-])O[C@H]1[C@H](O)[C@H](O)CNC(=O)c1ccc(-c2ccccc2)cc1.[Na+].[Na+] [Compound 45]	0.81
CC(=O)N[C@@H]1[C@@H](NC(=O)CCl)[C@H](O)[C@](OCCCCCC(=O)[O-])(C(=O)[O-])O[C@H]1[C@H](O)[C@H](O)CNC(=O)c1ccc(-c2ccccc2)cc1.[Na+].[Na+] [Compound 41]	0.37
CC(=O)N[C@@H]1[C@@H](NC(=O)C(C)(C)C)[C@H](O)[C@](OCCCCCC(=O)[O-])(C(=O)[O-])O[C@H]1[C@H](O)[C@H](O)CNC(=O)c1ccc(-c2ccccc2)cc1.[Na+].[Na+] [Compound 40]	0.38
CCCCC(=O)N[C@@H]1[C@@H](NC(C)=O)[C@H]([C@H](O)[C@H](O)CNC(=O)c2ccc(-c3ccccc3)cc2)O[C@@](OCCCCCC(=O)[O-])(C(=O)[O-])[C@H]1O.[Na+].[Na+] [Compound 42]	1.22
CC(=O)N[C@@H]1[C@@H](NS(=O)(=O)c2cccc3c(N(C)C)cccc23)[C@H](O)[C@](OCCCCCC(=O)[O-])(C(=O)[O-])O[C@H]1[C@H](O)[C@H](O)CNC(=O)c1ccc(-c2ccccc2)cc1.[Na+].[Na+] [Compound 65]	0.17
CC(=O)N[C@@H]1[C@@H](NC(=O)CO)[C@H](O)[C@](OCCCCCC(=O)[O-])(C(=O)[O-])O[C@H]1[C@H](O)[C@H](O)CNC(=O)c1ccc(-c2ccccc2)cc1.[Na+].[Na+] [Compound 44]	0.24
CC(=O)N[C@@H]1[C@@H](NC(C)=O)[C@H](O)[C@](OCCCCCC(=O)[O-])(C(=O)[O-])O[C@H]1[C@H](O)[C@H](O)CNC(=O)c1ccc(-c2ccccc2)cc1.[Na+].[Na+] [Compound 38]	0.45

Same assay, conditions: Table III; relative to reference compound 17 co-tested in the same assay (rIP = 1)

SMILES	rIP
CC(=O)N[C@H]1[C@H]([C@H](O)[C@H](O)CNC(=O)c2ccc(-c3ccccc3)cc2)O[C@@](OCCCCCC(=O)[O-])(C(=O)[O-])C[C@@H]1NC(=O)c1ccc(Cl)cc1.[Na+].[Na+] [Compound 61]	3.4
CC(=O)N[C@H]1[C@H]([C@H](O)[C@H](O)CNC(=O)c2ccc(-c3ccccc3)cc2)O[C@@](OCCCCCC(=O)[O-])(C(=O)[O-])C[C@@H]1NC(=O)c1ccc(O)cc1.[Na+].[Na+] [Compound 62]	1.7
CC(=O)N[C@H]1[C@H]([C@H](O)[C@H](O)CNC(=O)c2ccc(-c3ccccc3)cc2)O[C@@](OCCCCCC(=O)[O-])(C(=O)[O-])C[C@@H]1NC(=O)c1ccc(C)cc1.[Na+].[Na+] [Compound 59]	0.24
CCC(=O)N[C@H]1C[C@](OCCCCCC(=O)[O-])(C(=O)[O-])O[C@@H]([C@H](O)[C@H](O)CNC(=O)c2ccc(-c3ccccc3)cc2)[C@@H]1NC(C)=O.[Na+].[Na+] [Compound 17]	1
CC(=O)N[C@H]1[C@H]([C@H](O)[C@H](O)CNC(=O)c2ccc(-c3ccccc3)cc2)O[C@@](OCCCCCC(=O)[O-])(C(=O)[O-])C[C@@H]1NC(=O)c1ccc(C(F)(F)F)cc1.[Na+].[Na+] [Compound 64]	1.2
CC(=O)N[C@H]1[C@H]([C@H](O)[C@H](O)CNC(=O)c2ccc(-c3ccccc3)cc2)O[C@@](OCCCCCC(=O)[O-])(C(=O)[O-])C[C@@H]1NC(=O)c1ccco1.[Na+].[Na+] [Compound 57]	6.1
CC(=O)N[C@H]1[C@H]([C@H](O)[C@H](O)CNC(=O)c2ccc(-c3ccccc3)cc2)O[C@@](OCCCCCC(=O)[O-])(C(=O)[O-])C[C@@H]1NC(=O)c1c(F)cccc1F.[Na+].[Na+] [Compound 54]	0.75

Same assay, conditions: Table IV; relative to reference compound 66 co-tested in the same assay (rIP = 1)

SMILES	rIP
CC(=O)N[C@H]1[C@H]([C@H](O)[C@H](O)CNC(=O)c2cccc3ccccc23)O[C@@](OCCCCCC(=O)[O-])(C(=O)[O-])C[C@@H]1NC(=O)OCc1ccccc1.[Na+].[Na+] [Compound 76]	0.35
CC(=O)N[C@H]1[C@H]([C@H](O)[C@H](O)CNC(=O)c2ccc(Oc3ccccc3)cc2)O[C@@](OCCCCCC(=O)[O-])(C(=O)[O-])C[C@@H]1NC(=O)OCc1ccccc1.[Na+].[Na+] [Compound 75]	0.25
